Source: patent publication US20070155783A1, “Substituted cyclohexyl and piperidinyl derivates as melanocortin-4 receptor modulators” (priority 2003, published 2007)

Tests used:
[1] = target: T1, hMC4-R (Homo sapiens, UniProt P32245); test: Membrane binding assay, competition with fluorescence labeled NDP-alpha-MSH (fluorescence polarization); settings: HEK293 cell membrane preparations expressing human melanocortin receptor
T1 construct: expressed in transfected cells; host or cells: HEK293 cells
Protocol: A membrane binding assay is used to identify competitive inhibitors of fluorescence labeled NDP-alpha-MSH binding to HEK293 cell membrane preparations expressing human melanocortin receptors.
The test compound or unlabeled NDP-alpha-MSH is dispensed at varying concentrations to a 384 well microtiter plate. Fluorescence labeled NDP-alpha-MSH is dispensed at a single concentration, followed by addition of membrane preparations. The plate is incubated for 5 h at room temperature.
The degree of fluorescence polarization is determined with a fluorescence polarization microplate reader.

[2] = target: T1, hMC4-R; test: Functional cellular cAMP assay in HEK293 cells (fluorescence polarization); assay type: cell-based; settings: for EC50: HEK293 cells expressing human melanocortin receptor, cAMP production; for % activation functional assay: cAMP produced compared to stimulation with NDP-alpha-MSH
Protocol: A functional cellular assay, based on competition between unlabeled cAMP and a fixed quantity of fluorescence labeled cAMP for a limited number of binding sites on a cAMP specific antibody, is used to discriminate melanocortin receptor agonists from antagonists by fluorescence polarization.
HEK293 cells expressing one of the human melanocortin receptors are transferred to 384 well microtiter plates, an appropriate amount of cAMP antibody is added, followed by the addition of different concentrations of the test compound to effect cAMP production. Cells are lysed and a fluorescence labeled cAMP conjugate is dispensed. The plate is read on a fluorescence polarization microplate reader and the amount of cAMP produced as a response to a test compound is compared to the production of cAMP resulting from stimulation with NDP-alpha-MSH.
To define antagonistic activity of a test compound, the compound is dispensed at different concentrations to cells stimulated by an appropriate amount of NDP-α-MSH. Inhibition of cAMP production is determined by comparing the inhibition of cAMP production of the test compound to the inhibition of cAMP production by a known inhibitor tested at the same concentrations.

[3] = test system: male Wistar rats; test: Spontaneous feeding paradigm, food intake in rats; assay type: in vivo, rat; settings: 10 mg/kg
Protocol: Food intake in rats is measured after i.p. or p.o. administration of the test compound (see e.g. Chen, A. S. et al. Transgenic Res 2000 April; 9(2):145-54).
3-4 Hours following the onset of the light-phase, individually housed, male Wistar rats (200 -300 g) receive an ip injection or po application of test compound or vehicle in an administration volume of 2 ml/kg. Following the administration of substances (1-30 mg/kg), a pre-weighted amount of normal laboratory chow is placed into the food hopper. Food remaining is measured by hand at 1-2 hour intervals for up to 8 hours. Differences in food intake between test-compound and vehicle-treated rats are evaluated.
Selected Examples of the present invention were active in the rat model at 10 mg/kg after p.o. administration of the test compound using male Wistar rats (n=4-8).

T1 sequence (P32245 whole entry): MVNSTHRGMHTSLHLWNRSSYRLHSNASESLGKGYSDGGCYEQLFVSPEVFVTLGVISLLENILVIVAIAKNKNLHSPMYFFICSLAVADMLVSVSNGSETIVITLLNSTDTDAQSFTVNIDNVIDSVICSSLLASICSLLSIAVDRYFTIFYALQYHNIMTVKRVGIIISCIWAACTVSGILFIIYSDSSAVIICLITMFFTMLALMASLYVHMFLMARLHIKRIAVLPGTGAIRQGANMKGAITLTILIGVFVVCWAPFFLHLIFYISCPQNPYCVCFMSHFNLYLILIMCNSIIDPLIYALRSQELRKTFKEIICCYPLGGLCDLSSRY

IC50 [1] | EC50 [2] | % activation functional assay [2] | SMILES | increase in cumulative food intake compared to vehicle ([3]; 2 hours following administration, p=0.048, n=4) | increase in cumulative food intake compared to vehicle ([3]; 4 hours following administration, p=0.092, n=4) | increase in cumulative food intake compared to vehicle ([3]; 7 hours following administration, p=0.047, n=4)
600 nM | 3300 nM | 100% | O=C(N[C@H](C=C1CCC(c2ccccc2CN2CCCC2=O)CC1)Cc1ccc(Cl)cc1)[C@H]1Cc2ccccc2CN1 (stereo partly shown) [Example 1] | – | – | –
300 nM | 300 nM | 97% | O=C(N[C@@H](C=C1CCC(c2ccccc2CN2CCCC2=O)CC1)Cc1ccc(Cl)cc1)[C@H]1Cc2ccccc2CN1 (stereo partly shown) [Example 2] | – | – | –
3100 nM | – | no activation | O=C(N[C@H](C=C1CCN(c2ccccc2CN2CCCC2=O)CC1)Cc1ccc(Cl)cc1)c1cc(=O)c2ccccc2o1 [Example 17] | – | – | –
1000 nM | – | no activation | O=C(N[C@@H](C=C1CCC(c2ccccc2CN2CCCC2=O)CC1)Cc1ccc(Cl)cc1)c1cc(=O)c2ccccc2o1 (stereo partly shown) [Example 18] | – | – | –
– | – | – | COc1ccc2oc(C(=O)N[C@@H](C=C3CCC(c4ccccc4CN4CCCC4=O)CC3)Cc3ccc(Cl)cc3)cc(=O)c2c1 (stereo partly shown) [Example 34] | 3100% | 460% | 151%
